Patent US11065240B2, “Drug combinations to treat multiple myeloma” (Exelixis, Inc., priority 2014, dated 2021)

Assays:
[1] = system: 5TGM1 mouse myeloma cells; experiment: 5TGM1 murine multiple myeloma model, study 2: overall survival, alone or in combination; type: in vivo; settings: for prolongation of overall survival (OS) compared to vehicle, statistical significance / median survival time: bortezomib 0.5 mg/kg ip twice a week, cabozantinib 10 mg/kg PO QD; for median survival time: vehicle 36 d, FIG. 1
Method: Cabozantinib (XL184) is obtained from the Exelixis in powder form. It is dissolved in sterile water to a concentration of 1 mg/ml for dosing at 10 mg/kg or 30 mg/kg. The dosing solution is prepared daily within one hour before dosing. The undissolved test compound will be stored at ambient or room temperature in a dry environment such as in a dessicator. The test compound is administered daily by oral gavage.
Bortezomib is obtained from LC Laboratories (Boston, Mass., USA) in powder form and dissolved in EtOH. The stock solution is stored at −20° C. The bortezomib dosing solutions are prepared fresh for every dosing as follows: 25 μl of the stock solution of 25 mg/ml of bortezomib (LC Laboratories, Boston, Mass., USA) in EtOH and 25 μl of EtOH is diluted in 3.61 ml of 0.9% NaCl to obtain the concentration of 0.17 mg/ml. The dosing volume is 3 ml/kg, resulting in the dose 0.5 mg/kg. Bortezomib is administered intraperitoneally twice a week.
5TGM1 mouse multiple myeloma cells are obtained from the Department of Molecular Medicine, University of Texas Health Science Center at San Antonio. Cell culturing is performed according to standard procedures. 5TGM1 mouse myeloma cells (2×10^6 cells in 0.1 ml of PBS) are inoculated into the tail vein of the mice at day 0. Viability of the cells will be determined before and after the inoculations. Cancer cell inoculation will cause the mice to develop a bone disease typical for multiple myeloma.
Statistical analysis will be performed with statistical software R (version 2.14.0 or newer, www.r-project.org) or OriginPro (version 8.6 or newer, OriginLab, Northampton, Mass., USA). The mean and standard deviation of each parameter will be determined. All statistical analyses will be performed as two-sided tests. Normal distribution and homogeneity of variance will be checked before further analyses. In case of violating these assumptions, either log transformation or other appropriate transformation (e.g. square root, reciprocal) will be applied. If the assumptions are fulfilled as such or after transformation, Oneway ANOVA will be used for end-point parameters to assess whether the values obtained between groups are statistically different (with p<0.05) followed by Tukey test for comparison against the control group. If the assumptions are not fulfilled even after the transformations described above, rank-transformation will be applied and the non-parametric Kruskal-Wallis test followed by Mann-Whitney U-test will be used. Linear mixed effects model will be used for repeated measurements like biochemical markers.
Female C57BL/KaLwRij mice were allocated to treatment groups (n=15 per group) with equivalent average body weights. Four experimental groups were utilized in each of 2 studies: a vehicle control group, and groups receiving single agent bortezomib (0.5 mg/kg ip twice a week) or cabozantinib (10 mg/kg, PO QD). Study 1 also included a higher dose cabozantinib group (30 mg/kg, PO QD), and study 2 included a combination group: bortezomib (0.5 mg/kg ip twice a week) plus cabozantinib (10 mg/kg, PO QD). […]
On day 0, animals were inoculated with 5TGM1 mouse myeloma cells by IV administration. […] Body weights were determined twice a week and blood samples were collected on days—1, 15, 22, and 34 for analysis of paraprotein (IgG2b) and TRACP 5b. In study 1 the development of osteolytic lesions was detected by radiography at the end of the study. […]

[2] = system: 5TGM1 mouse myeloma cells; experiment: 5TGM1 murine multiple myeloma model, study 1: bone lesions and tumor burden; type: in vivo; settings: for bone protective properties/effects: cabozantinib 10 or 30 mg/kg PO QD; for frequency of soft tissue lesions: cabozantinib both doses (10 and 30 mg/kg PO QD)
Method: Cabozantinib (XL184) is obtained from the Exelixis in powder form. It is dissolved in sterile water to a concentration of 1 mg/ml for dosing at 10 mg/kg or 30 mg/kg. The dosing solution is prepared daily within one hour before dosing. The undissolved test compound will be stored at ambient or room temperature in a dry environment such as in a dessicator. The test compound is administered daily by oral gavage. Bortezomib is obtained from LC Laboratories (Boston, Mass., USA) in powder form and dissolved in EtOH. The stock solution is stored at -20° C. The bortezomib dosing solutions are prepared fresh for every dosing as follows: 25 μl of the stock solution of 25 mg/ml of bortezomib (LC Laboratories, Boston, Mass., USA) in EtOH and 25 μl of EtOH is diluted in 3.61 ml of 0.9% NaCl to obtain the concentration of 0.17 mg/ml. The dosing volume is 3 ml/kg, resulting in the dose 0.5 mg/kg. Bortezomib is administered intraperitoneally twice a week. 5TGM1 mouse multiple myeloma cells are obtained from the Department of Molecular Medicine, University of Texas Health Science Center at San Antonio. Cell culturing is performed according to standard procedures. 5TGM1 mouse myeloma cells (2×10^6 cells in 0.1 ml of PBS) are inoculated into the tail vein of the mice at day 0. Viability of the cells will be determined before and after the inoculations. Cancer cell inoculation will cause the mice to develop a bone disease typical for multiple myeloma. Blood samples will be collected from the saphenous vein before the inoculation of cancer cells, at days 15, 22, 35 and at sacrifice. The serum samples will be prepared within one hour of sampling, and stored at -70° C. Serum paraprotein IgG2b will be analyzed using mouse IgG2b ELISA quantitation kit (Bethyl Laboratories Inc, Montgomery, Tex., USA). Serum […] activity and PINP concentration will be analyzed using Mouse TRAP and Mouse PINP kits (IDS, Boldon, UK). The development of the myeloma bone disease is monitored by x-ray radiography at day 35. Animals will be anesthethized by isoflurane and x-rayed in a prone position with the Faxitron Specimen Radiographic System MX-20 D12 (Faxitron Corp. Illinois, USA) using Faxitron Dicom 3.0-software. At least one radiograph (both hind limbs) per animal will be taken on each x-ray occasion (31 kV, 10 seconds, magnification 2×). The lesion number and lesion area in hind limbs will be determined from the images with MetaMorph image analysis software. Statistical analysis will be performed with statistical software R (version 2.14.0 or newer, www.r-project.org) or OriginPro (version 8.6 or newer, OriginLab, Northampton, Mass., USA). The mean and standard deviation of each parameter will be determined. All statistical analyses will be performed as two-sided tests. Normal distribution and homogeneity of variance will be checked before further analyses. In case of violating these assumptions, either log transformation or other appropriate transformation (e.g. square root, reciprocal) will be applied. If the assumptions are fulfilled as such or after transformation, Oneway ANOVA will be used for end-point parameters to assess whether the values obtained between groups are statistically different (with p<0.05) followed by Tukey test for comparison against the control group. If the assumptions are not fulfilled even after the transformations described above, rank-transformation will be applied and the non-parametric Kruskal-Wallis test followed by Mann-Whitney U-test will be used. Linear mixed effects model will be used for repeated measurements like biochemical markers. Female C57BL/KaLwRij mice were allocated to treatment groups (n=15 per group) with equivalent average body weights. Four experimental groups were utilized in each of 2 studies: a vehicle control group, and groups receiving single agent bortezomib (0.5 mg/kg ip twice a week) or cabozantinib (10 mg/kg, PO QD). […]

[3] = study 1, bortezomib 0.5 mg/kg ip twice a week
[4] = study 1, 30 mg/kg PO QD, radiography at end of study
[5] = study 1, both the 10 and 30 mg/kg doses PO QD

SMILES | prolongation of overall survival (OS) compared to vehicle, statistical significance [1] | median survival time [1] [days] | bone protective properties/effects [2, 3] | frequency of soft tissue lesions [2, 3] | serum IgG2b levels ([2]; study 1, female C57BL/KaLwRij mice, bortezomib 0.5 mg/kg ip twice a week, vs vehicle) | prolongation of overall survival (conclusion, comparator not stated) ([1]; conclusions) | bone-protective and anti-tumor effects (conclusion) ([2]; murine model of MM, conclusions) | mean area of osteolytic lesions [2, 4] | total area of osteolytic lesions [2, 4] | necrotic tumor area in bone ([2]; study 1, 10 and 30 mg/kg PO QD) | start of the rise in serum IgG2b ([2]; study 1, both cabozantinib-treated groups (10 and 30 mg/kg), vs vehicle control) | relative IgG2b at sacrifice ([2]; study 1, both cabozantinib-treated groups, vs vehicle control) | osteoclast counts at the tumor-bone interface [2, 5] | serum TRACP 5b values [2, 5] | relative bone area ([2]; study 1, histomorphometry, vs control)
CC(C)C[C@H](NC(=O)[C@H](Cc1ccccc1)NC(=O)c1cnccn1)B(O)O [bortezomib, reference compound] | not | 43 | did not show bone protective properties | decreased | reduced | – | – | – | – | – | – | – | – | – | –
COc1cc2nccc(Oc3ccc(NC(=O)C4(C(=O)Nc5ccc(F)cc5)CC4)cc3)c2cc1OC [cabozantinib, N-(4-{[6,7-bis(methyloxy)quinolin-4-yl]oxy}phenyl)-N′-(4-fluorophenyl)cyclopropane-1,1-dicarboxamide] | statistically significant | 48 | exhibited bone protective effects | decreased | – | statistically-significant prolongation | showed both bone-protective and anti-tumor effects | reduced | reduced | dose dependently increased | started earlier than vehicle control | a significant difference was not observed | reduced | reduced | did not differ from control
